Paper PMC4076210, “Discovery of Novel AKT Inhibitors with Enhanced Anti-Tumor Effects in Combination with the MEK Inhibitor” (PLoS ONE, 2014)
Read-outs that look alike come from different tables or passages of the source.

Columns and labels:
Assay type in all cases: biochemical
ROCK-I(h) = molecular target: T1, ROCK-I(h) (Homo sapiens, UniProt Q13464); assay: Kinase panel
T1 construct: purchased Millipore KinaseProfiler

PDGFRα(D842V)(h) = molecular target: T2, PDGFRα(D842V)(h) (Homo sapiens, UniProt P16234, D842V); assay: Kinase panel
T2 construct: purchased Millipore KinaseProfiler
T2 sequence (P16234 24-1089 D842V): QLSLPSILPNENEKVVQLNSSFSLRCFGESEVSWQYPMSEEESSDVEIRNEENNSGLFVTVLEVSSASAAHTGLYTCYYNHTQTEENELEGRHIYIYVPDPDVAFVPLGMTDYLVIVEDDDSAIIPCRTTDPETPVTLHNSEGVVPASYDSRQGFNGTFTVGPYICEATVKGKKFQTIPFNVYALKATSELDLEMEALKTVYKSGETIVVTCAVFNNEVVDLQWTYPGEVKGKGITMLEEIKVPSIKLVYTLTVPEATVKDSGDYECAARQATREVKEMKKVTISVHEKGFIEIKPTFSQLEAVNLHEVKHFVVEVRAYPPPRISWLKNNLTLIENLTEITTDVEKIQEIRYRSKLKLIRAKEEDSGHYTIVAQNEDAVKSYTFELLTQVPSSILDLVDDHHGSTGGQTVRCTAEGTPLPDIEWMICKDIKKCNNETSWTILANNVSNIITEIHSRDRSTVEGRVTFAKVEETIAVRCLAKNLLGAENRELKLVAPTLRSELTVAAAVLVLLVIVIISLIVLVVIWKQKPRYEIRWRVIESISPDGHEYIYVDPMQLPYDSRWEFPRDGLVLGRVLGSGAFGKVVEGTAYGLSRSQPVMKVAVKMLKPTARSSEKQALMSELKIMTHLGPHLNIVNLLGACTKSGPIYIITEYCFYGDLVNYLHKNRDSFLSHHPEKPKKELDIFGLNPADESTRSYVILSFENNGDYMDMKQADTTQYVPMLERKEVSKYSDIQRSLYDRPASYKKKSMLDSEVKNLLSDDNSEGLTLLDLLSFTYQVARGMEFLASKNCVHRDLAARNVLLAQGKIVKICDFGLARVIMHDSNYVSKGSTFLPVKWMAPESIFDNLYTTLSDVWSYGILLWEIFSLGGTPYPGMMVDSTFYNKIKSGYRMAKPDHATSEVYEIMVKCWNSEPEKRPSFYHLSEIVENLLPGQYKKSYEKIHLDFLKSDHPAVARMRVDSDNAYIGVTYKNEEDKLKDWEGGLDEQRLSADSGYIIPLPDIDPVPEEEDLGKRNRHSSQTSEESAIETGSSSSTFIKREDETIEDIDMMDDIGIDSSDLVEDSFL

SRPK2(h) = molecular target: T3, SRPK2(h) (Homo sapiens, UniProt P78362); assay: Kinase panel
T3 construct: purchased Millipore KinaseProfiler
T3 sequence (P78362 whole entry): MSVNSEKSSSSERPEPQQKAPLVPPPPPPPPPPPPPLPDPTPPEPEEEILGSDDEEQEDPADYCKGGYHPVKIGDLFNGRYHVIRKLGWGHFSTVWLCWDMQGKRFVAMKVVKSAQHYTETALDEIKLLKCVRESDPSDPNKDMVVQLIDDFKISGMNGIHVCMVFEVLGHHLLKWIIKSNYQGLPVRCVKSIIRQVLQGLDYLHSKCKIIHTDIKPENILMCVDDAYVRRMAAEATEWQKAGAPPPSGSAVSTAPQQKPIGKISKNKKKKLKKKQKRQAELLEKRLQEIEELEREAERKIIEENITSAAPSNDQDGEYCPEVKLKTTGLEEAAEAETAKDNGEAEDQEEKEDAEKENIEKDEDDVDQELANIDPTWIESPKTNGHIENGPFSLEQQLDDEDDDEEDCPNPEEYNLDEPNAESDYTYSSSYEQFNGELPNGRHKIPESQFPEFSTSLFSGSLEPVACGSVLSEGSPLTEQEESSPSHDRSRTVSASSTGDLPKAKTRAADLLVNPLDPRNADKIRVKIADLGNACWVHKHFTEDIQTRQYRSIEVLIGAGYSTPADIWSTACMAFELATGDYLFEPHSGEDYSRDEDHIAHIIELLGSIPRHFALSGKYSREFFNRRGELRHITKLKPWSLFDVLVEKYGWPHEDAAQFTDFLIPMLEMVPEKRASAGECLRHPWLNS

Aurora-A(h) = molecular target: T4, Aurora-A(h) (Homo sapiens, UniProt O14965); assay: Kinase panel
T4 construct: purchased Millipore KinaseProfiler
T4 sequence (O14965 1-403): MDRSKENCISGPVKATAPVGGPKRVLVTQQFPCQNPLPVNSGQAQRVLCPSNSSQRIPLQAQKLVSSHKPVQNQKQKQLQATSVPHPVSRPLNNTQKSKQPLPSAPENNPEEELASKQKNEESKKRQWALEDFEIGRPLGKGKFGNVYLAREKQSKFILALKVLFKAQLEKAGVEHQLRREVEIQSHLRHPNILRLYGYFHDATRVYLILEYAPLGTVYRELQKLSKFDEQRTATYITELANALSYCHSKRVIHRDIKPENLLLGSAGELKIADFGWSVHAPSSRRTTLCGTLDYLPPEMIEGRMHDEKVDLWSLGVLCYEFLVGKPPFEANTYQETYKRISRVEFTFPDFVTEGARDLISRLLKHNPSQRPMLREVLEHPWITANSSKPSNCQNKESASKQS

Snk(h) = molecular target: T5, Snk(h) (Homo sapiens, UniProt Q9NYY3); assay: Kinase panel
T5 construct: purchased Millipore KinaseProfiler

CK1γ1(h) = molecular target: T6, CK1γ1(h) (Homo sapiens, UniProt Q9HCP0); assay: Kinase panel
T6 construct: purchased Millipore KinaseProfiler

PAK5(h) = molecular target: T7, PAK5(h) (Homo sapiens, UniProt Q9P286); assay: Kinase panel
T7 construct: purchased Millipore KinaseProfiler

MST3(h) = molecular target: T8, MST3(h) (Homo sapiens, UniProt Q9Y6E0); assay: Kinase panel
T8 construct: purchased Millipore KinaseProfiler

Rsk2(h) = molecular target: T9, Rsk2(h) (Homo sapiens, UniProt P51812); assay: Kinase panel
T9 construct: purchased Millipore KinaseProfiler
T9 sequence (P51812 whole entry): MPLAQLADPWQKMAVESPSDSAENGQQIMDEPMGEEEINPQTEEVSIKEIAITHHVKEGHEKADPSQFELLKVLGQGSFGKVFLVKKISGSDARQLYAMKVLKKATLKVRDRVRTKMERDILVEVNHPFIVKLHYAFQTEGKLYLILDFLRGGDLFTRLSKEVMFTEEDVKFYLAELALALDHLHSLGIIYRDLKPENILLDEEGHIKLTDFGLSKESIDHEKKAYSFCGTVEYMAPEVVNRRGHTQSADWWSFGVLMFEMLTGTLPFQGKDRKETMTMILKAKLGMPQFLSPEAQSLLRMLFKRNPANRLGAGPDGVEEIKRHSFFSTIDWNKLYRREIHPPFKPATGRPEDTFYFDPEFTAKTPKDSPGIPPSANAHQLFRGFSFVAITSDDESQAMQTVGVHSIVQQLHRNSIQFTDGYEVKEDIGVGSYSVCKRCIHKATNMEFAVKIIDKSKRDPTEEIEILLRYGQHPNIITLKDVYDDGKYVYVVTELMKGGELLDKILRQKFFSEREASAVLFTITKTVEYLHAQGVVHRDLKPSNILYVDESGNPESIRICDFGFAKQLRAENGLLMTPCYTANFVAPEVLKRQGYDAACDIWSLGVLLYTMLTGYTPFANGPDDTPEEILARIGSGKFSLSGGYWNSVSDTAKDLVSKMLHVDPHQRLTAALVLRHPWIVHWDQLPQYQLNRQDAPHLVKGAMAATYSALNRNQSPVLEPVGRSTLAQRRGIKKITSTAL

Tie2(h) = molecular target: T10, Tie2(h) (Homo sapiens, UniProt Q02763); assay: Kinase panel
T10 construct: purchased Millipore KinaseProfiler

PAR-1Bα(h) = molecular target: T11, PAR-1Bα(h) (Homo sapiens, UniProt Q7KZI7); assay: Kinase panel
T11 construct: purchased Millipore KinaseProfiler

cKit(D816V)(h) = molecular target: T12, cKit(D816V)(h) (Homo sapiens, UniProt P10721, D816V); assay: Kinase panel
T12 construct: purchased Millipore KinaseProfiler
T12 sequence (P10721 26-976 D816V): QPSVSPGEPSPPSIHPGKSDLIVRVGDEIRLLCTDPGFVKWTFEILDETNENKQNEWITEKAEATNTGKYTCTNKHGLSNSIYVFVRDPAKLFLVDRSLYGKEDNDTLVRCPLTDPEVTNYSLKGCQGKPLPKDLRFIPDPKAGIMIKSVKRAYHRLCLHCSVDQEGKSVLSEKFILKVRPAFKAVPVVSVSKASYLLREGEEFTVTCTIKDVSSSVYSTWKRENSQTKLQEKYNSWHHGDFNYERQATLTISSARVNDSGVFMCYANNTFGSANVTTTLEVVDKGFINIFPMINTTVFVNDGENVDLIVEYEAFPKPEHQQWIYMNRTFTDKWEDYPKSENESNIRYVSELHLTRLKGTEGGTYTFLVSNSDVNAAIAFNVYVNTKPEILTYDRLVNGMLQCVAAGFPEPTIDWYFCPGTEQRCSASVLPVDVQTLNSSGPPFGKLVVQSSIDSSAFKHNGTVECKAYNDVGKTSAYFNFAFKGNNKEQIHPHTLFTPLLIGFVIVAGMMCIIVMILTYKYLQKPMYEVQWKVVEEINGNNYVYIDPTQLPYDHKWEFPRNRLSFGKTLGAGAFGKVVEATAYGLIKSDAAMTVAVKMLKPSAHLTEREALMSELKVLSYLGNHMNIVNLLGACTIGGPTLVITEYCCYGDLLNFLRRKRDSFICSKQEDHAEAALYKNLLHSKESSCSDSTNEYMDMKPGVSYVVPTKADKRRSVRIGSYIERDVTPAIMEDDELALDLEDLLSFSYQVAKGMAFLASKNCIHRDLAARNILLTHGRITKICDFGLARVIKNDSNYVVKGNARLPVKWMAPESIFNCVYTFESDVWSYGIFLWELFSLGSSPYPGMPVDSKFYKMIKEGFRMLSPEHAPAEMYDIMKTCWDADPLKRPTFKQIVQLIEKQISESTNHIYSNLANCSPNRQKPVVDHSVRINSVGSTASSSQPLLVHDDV

Flt1(h) = molecular target: T13, Flt1(h) (Homo sapiens, UniProt P17948); assay: Kinase panel
T13 construct: purchased Millipore KinaseProfiler

Flt4(h) = molecular target: T14, Flt4(h) (Homo sapiens, UniProt P35916); assay: Kinase panel
T14 construct: purchased Millipore KinaseProfiler

PDK1(h) = molecular target: T15, PDK1(h) (Homo sapiens, UniProt O15530); assay: Kinase panel
T15 construct: purchased Millipore KinaseProfiler
T15 sequence (O15530 1-556): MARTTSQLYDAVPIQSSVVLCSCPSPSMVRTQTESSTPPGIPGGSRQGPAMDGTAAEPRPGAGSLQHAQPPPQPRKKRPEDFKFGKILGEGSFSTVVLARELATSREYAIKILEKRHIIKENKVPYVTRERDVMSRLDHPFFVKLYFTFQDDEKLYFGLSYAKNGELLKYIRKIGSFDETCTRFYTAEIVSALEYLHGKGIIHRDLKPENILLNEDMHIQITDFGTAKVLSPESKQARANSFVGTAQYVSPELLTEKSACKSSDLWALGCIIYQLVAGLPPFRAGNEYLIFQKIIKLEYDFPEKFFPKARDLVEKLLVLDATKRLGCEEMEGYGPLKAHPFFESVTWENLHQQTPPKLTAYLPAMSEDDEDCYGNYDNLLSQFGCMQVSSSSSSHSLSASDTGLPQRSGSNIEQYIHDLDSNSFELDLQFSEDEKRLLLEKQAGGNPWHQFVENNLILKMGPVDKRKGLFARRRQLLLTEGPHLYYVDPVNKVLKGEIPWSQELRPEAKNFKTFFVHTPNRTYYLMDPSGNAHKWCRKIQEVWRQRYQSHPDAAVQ

PKCγ = PKCγ (Homo sapiens, UniProt P05129); assay: Kinase IC50 assay
MRCKα(h) = molecular target: T16, MRCKα(h) (Homo sapiens, UniProt Q5VT25); assay: Kinase panel
T16 construct: purchased Millipore KinaseProfiler

MST2(h) = molecular target: T17, MST2(h) (Homo sapiens, UniProt Q13188); assay: Kinase panel
T17 construct: purchased Millipore KinaseProfiler
T17 sequence (Q13188 1-491): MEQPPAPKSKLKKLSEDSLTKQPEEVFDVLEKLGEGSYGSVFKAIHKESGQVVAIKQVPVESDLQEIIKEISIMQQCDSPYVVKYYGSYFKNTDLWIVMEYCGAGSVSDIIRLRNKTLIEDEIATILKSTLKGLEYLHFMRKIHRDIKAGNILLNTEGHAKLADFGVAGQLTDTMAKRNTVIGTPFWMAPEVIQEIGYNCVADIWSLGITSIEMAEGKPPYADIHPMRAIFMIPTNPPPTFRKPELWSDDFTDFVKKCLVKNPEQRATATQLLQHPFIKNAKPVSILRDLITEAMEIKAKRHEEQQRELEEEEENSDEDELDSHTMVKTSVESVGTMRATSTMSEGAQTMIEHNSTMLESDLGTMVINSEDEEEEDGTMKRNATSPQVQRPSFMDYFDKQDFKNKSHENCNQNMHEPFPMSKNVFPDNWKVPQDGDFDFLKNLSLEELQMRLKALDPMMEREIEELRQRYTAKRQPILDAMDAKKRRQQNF

Src(1-530)(h) = molecular target: T18, Src(1-530)(h) (Homo sapiens, UniProt P12931); assay: Kinase panel
T18 construct: purchased Millipore KinaseProfiler

FGFR4(h) = molecular target: T19, FGFR4(h) (Homo sapiens, UniProt P22455); assay: Kinase panel
T19 construct: purchased Millipore KinaseProfiler

T1 sequence (Q13464 whole entry): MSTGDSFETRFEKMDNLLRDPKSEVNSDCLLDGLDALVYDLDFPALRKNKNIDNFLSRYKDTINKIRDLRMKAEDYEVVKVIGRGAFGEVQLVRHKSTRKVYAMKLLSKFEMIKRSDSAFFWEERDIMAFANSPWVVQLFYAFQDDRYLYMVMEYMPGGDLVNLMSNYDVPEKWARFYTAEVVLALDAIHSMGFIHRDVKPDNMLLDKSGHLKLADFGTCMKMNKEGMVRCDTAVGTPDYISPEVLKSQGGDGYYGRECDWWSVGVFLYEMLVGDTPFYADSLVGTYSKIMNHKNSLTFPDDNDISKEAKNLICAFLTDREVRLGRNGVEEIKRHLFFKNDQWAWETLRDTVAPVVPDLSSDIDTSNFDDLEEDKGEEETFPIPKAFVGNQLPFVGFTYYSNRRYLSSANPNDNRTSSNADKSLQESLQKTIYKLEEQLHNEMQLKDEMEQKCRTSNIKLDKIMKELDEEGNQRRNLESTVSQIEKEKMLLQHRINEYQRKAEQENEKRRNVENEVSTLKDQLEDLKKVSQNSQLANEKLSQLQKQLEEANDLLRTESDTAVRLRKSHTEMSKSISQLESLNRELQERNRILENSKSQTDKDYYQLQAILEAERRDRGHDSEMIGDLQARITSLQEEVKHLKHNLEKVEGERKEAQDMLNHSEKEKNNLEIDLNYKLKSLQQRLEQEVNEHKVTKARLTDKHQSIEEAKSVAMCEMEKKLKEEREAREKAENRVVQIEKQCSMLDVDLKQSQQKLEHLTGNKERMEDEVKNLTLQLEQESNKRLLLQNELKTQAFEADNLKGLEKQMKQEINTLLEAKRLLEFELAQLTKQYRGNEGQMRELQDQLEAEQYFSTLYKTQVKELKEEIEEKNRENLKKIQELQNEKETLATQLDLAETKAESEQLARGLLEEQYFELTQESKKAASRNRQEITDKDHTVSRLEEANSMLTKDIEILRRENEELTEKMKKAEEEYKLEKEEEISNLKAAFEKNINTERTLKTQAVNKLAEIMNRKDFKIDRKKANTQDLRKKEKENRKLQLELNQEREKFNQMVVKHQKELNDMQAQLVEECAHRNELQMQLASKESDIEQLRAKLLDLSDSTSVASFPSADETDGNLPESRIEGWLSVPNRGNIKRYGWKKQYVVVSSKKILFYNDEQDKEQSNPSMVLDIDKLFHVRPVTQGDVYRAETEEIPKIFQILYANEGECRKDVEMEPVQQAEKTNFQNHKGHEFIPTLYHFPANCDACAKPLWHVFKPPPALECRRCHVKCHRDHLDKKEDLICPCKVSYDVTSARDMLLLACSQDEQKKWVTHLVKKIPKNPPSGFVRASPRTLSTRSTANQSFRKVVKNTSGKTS

Cn1ncc(Cl)c1-c1cc(C(=O)N[C@H](CN)Cc2cccc(F)c2)sc1Cl [GSK2110183]
inhibition at 0.5 µM (ROCK-I(h)): 12%
inhibition at 10 µM (ROCK-I(h)): 77%
inhibition at 0.5 µM (PDGFRα(D842V)(h)): -16%
inhibition at 10 µM (PDGFRα(D842V)(h)): -4%
inhibition at 0.5 µM (SRPK2(h)): 26%
inhibition at 10 µM (SRPK2(h)): 37%
inhibition at 0.5 µM (Aurora-A(h)): 0%
inhibition at 10 µM (Aurora-A(h)): 23%
inhibition at 0.5 µM (Snk(h)): -8%
inhibition at 10 µM (Snk(h)): 18%
inhibition at 0.5 µM (CK1γ1(h)): -1%
inhibition at 10 µM (CK1γ1(h)): 20%
inhibition at 0.5 µM (PAK5(h)): 2%
inhibition at 10 µM (PAK5(h)): 49%
inhibition at 0.5 µM (MST3(h)): 14%
inhibition at 10 µM (MST3(h)): 50%
inhibition at 0.5 µM (Rsk2(h)): 63%
inhibition at 10 µM (Rsk2(h)): 97%
inhibition at 0.5 µM (Tie2(h)): -56%
inhibition at 10 µM (Tie2(h)): -10%
inhibition at 0.5 µM (PAR-1Bα(h)): 15%
inhibition at 10 µM (PAR-1Bα(h)): 84%
inhibition at 0.5 µM (cKit(D816V)(h)): 0%
inhibition at 10 µM (cKit(D816V)(h)): 9%
inhibition at 0.5 µM (Flt1(h)): -35%
inhibition at 10 µM (Flt1(h)): -28%
inhibition at 0.5 µM (Flt4(h)): 4%
inhibition at 10 µM (Flt4(h)): 21%
inhibition at 0.5 µM (PDK1(h)): -12%
inhibition at 10 µM (PDK1(h)): -6%
IC50 (PKCγ): > 1000 nM
inhibition at 0.5 µM (MRCKα(h)): -9%
inhibition at 10 µM (MRCKα(h)): -5%
inhibition at 0.5 µM (MST2(h)): -4%
inhibition at 10 µM (MST2(h)): -2%
inhibition at 0.5 µM (Src(1-530)(h)): -12%
inhibition at 10 µM (Src(1-530)(h)): 61%
inhibition at 0.5 µM (FGFR4(h)): 0%
inhibition at 10 µM (FGFR4(h)): 19%

Cn1ncc(Cl)c1-c1cc(C(=O)N[C@H](CN)Cc2ccc(F)c(F)c2)oc1Cl [GSK2141795]
inhibition at 0.5 µM (ROCK-I(h); 0.5 µM, read-out: % Inhibition): 18%
inhibition at 10 µM (ROCK-I(h); 10 µM, read-out: % Inhibition): 71%
inhibition at 0.5 µM (PDGFRα(D842V)(h); 0.5 µM, read-out: % Inhibition): -5%
inhibition at 10 µM (PDGFRα(D842V)(h); 10 µM, read-out: % Inhibition): 15%
inhibition at 0.5 µM (SRPK2(h); 0.5 µM, read-out: % Inhibition): 1%
inhibition at 10 µM (SRPK2(h); 10 µM, read-out: % Inhibition): 27%
inhibition at 0.5 µM (Aurora-A(h); 0.5 µM, read-out: % Inhibition): -10%
inhibition at 10 µM (Aurora-A(h); 10 µM, read-out: % Inhibition): 31%
inhibition at 0.5 µM (Snk(h); 0.5 µM, read-out: % Inhibition): -12%
inhibition at 10 µM (Snk(h); 10 µM, read-out: % Inhibition): 15%
inhibition at 0.5 µM (CK1γ1(h); 0.5 µM, read-out: % Inhibition): -6%
inhibition at 10 µM (CK1γ1(h); 10 µM, read-out: % Inhibition): 39%
inhibition at 0.5 µM (PAK5(h); 0.5 µM, read-out: % Inhibition): 0%
inhibition at 10 µM (PAK5(h); 10 µM, read-out: % Inhibition): 40%
inhibition at 0.5 µM (MST3(h); 0.5 µM, read-out: % Inhibition): 10%
inhibition at 10 µM (MST3(h); 10 µM, read-out: % Inhibition): 63%
inhibition at 0.5 µM (Rsk2(h); 0.5 µM, read-out: % Inhibition): 73%
inhibition at 10 µM (Rsk2(h); 10 µM, read-out: % Inhibition): 100%
inhibition at 0.5 µM (Tie2(h); 0.5 µM, read-out: % Inhibition): -6%
inhibition at 10 µM (Tie2(h); 10 µM, read-out: % Inhibition): 9%
inhibition at 0.5 µM (PAR-1Bα(h); 0.5 µM, read-out: % Inhibition): 24%
inhibition at 10 µM (PAR-1Bα(h); 10 µM, read-out: % Inhibition): 83%
inhibition at 0.5 µM (cKit(D816V)(h); 0.5 µM, read-out: % Inhibition): -17%
inhibition at 10 µM (cKit(D816V)(h); 10 µM, read-out: % Inhibition): -16%
inhibition at 0.5 µM (Flt1(h); 0.5 µM, read-out: % Inhibition): -4%
inhibition at 10 µM (Flt1(h); 10 µM, read-out: % Inhibition): 21%
inhibition at 0.5 µM (Flt4(h); 0.5 µM, read-out: % Inhibition): -6%
inhibition at 10 µM (Flt4(h); 10 µM, read-out: % Inhibition): 23%
inhibition at 0.5 µM (PDK1(h); 0.5 µM, read-out: % Inhibition): 3%
inhibition at 10 µM (PDK1(h); 10 µM, read-out: % Inhibition): 19%
IC50 (PKCγ): 200 nM
inhibition at 0.5 µM (MRCKα(h); 0.5 µM, read-out: % Inhibition): -6%
inhibition at 10 µM (MRCKα(h); 10 µM, read-out: % Inhibition): -2%
inhibition at 0.5 µM (MST2(h); 0.5 µM, read-out: % Inhibition): -2%
inhibition at 10 µM (MST2(h); 10 µM, read-out: % Inhibition): 4%
inhibition at 0.5 µM (Src(1-530)(h); 0.5 µM, read-out: % Inhibition): -30%
inhibition at 10 µM (Src(1-530)(h); 10 µM, read-out: % Inhibition): 30%
inhibition at 0.5 µM (FGFR4(h); 0.5 µM, read-out: % Inhibition): 24%
inhibition at 10 µM (FGFR4(h); 10 µM, read-out: % Inhibition): 19%
